From article PMC5501099 (Malaria Journal, 2017)

Assays:
Anopheles dirus [1] = assay: Ivermectin lethal concentration / survivorship, membrane blood feeding; type: in vivo; conditions: An. dirus
Protocol: Powdered formulation of ivermectin compound was obtained from Sigma-Aldrich (St. Louis, USA). […] Control blood meals consisted of previously frozen DMSO diluted in PBS to match the ratio of DMSO and PBS fed to mosquitoes in the ivermectin-containing blood meals.
After blood feeding via a membrane feeder, unfed mosquitoes were removed and discarded. Blood-fed mosquitoes were held in 3.5-l plastic containers with access to 10% sucrose and kept in an incubator at 25 ± 1 °C and 70 ± 10% relative humidity, on a 12 h light:12 h dark photoperiod. Mosquito survivorship was monitored for 7 days, every 24 h dead mosquitoes were removed and recorded, and on day 7 all remaining mosquitoes were frozen and counted as alive.
(§1) A non-linear mixed effects model with probit analysis was used to calculate LC50, LC25 and LC5 values with Statistical Analysis Software (SAS Institute Inc, Cary, NC, USA) as described previously. Hazard ratios for mosquito mortality at day 7 post blood meal were calculated using Poisson regression analysis with STATA version 12.1 (StataCorp LLC, College Station, TX, USA). Oocyst and sporozoite prevalence (i.e. proportion of infected mosquitoes) was compared by Fishers Exact test. Oocyst intensity (i.e. number of oocysts per infected mosquito) was compared by the Mann–Whitney U test. To determine if P. vivax infection altered mosquito survivorship post-ivermectin ingestion survival data were analysed by the Mantel–Cox method. The Fishers Exact, Mann–Whitney U, and survival analysis data were analysed with Prism 7 (GraphPad Software Inc, San Diego, CA, USA).

[2] = single dose of 800 µg/kg, literature parameters of American healthy volunteers; cited from earlier work
Plasmodium vivax [3] = assay: Effect of ivermectin on Plasmodium vivax sporogony in Anopheles dirus; type: in vivo; conditions: An. dirus; for P. vivax oocyst prevalence reduced by: dissected day 7
Protocol: (§2) Mosquitoes reared in Bangkok were transported to a field laboratory at the Mae Sot Malaria Medical Clinic in Mae Sot, Tak Province. Plasmodium vivax-infected blood was collected from malaria-infected patients reporting to malaria clinics operated by the Thailand Ministry of Public Health in Tak Province (protocol WRAIR#1949A). Patient plasma was removed and replaced by centrifuging blood samples at 3000 rpm for 5 min, plasma removed and blood washed with RPMI twice, and malaria-naïve AB+ serum was added at a 50:50 ratio [30]. One millilitre of blood was fed to each group of 100 mosquitoes in 0.5-l cardboard containers and unfed mosquitoes were removed. Mosquitoes were maintained on 10% sucrose ad libitum at the Mae Sot field insectary (25 ± 1 °C and 70 ± 10% relative humidity, light 12 h:12 h dark photoperiod). Once infected with P. vivax, blood-fed mosquitoes were securely transported back to Bangkok and maintained in a separate insectary (25 ± 1 °C and 70 ± 10% relative humidity, light 12 h:12 h dark photoperiod).
(§3) Unfed mosquitoes were removed from the feeding containers after each blood meal. Mosquitoes from the DPI 0 and DPI −3 feeding schedules were dissected 7 days post parasite ingestion to enumerate oocysts. Midguts were dissected with minuten pins into saline on a microscope slide and stained with 0.4% mercurochrome and viewed at 40× magnification with a compound microscope to determine oocyst prevalence and intensity. Approximately 25 mosquitoes were dissected from each control and treatment group at each dissection time point. Dissectors were blinded to treatment groups. Due to lack of initial mosquito blood feeding and mosquitoes lost to experimental mortality and oocyst dissections at day 7 post parasite feeding, not enough mosquitoes remained at day 14 post parasite feeding to determine sporozoite prevalence for the DPI −3 and 0 experiments. Mosquitoes from the DPI 6 and 9 experiments were dissected 14 days post parasite ingestion to determine sporozoite prevalence. Salivary glands were dissected with minuten pins into saline on a microscope slide and viewed at 40× magnification to determine sporozoite prevalence.
as §1

Plasmodium vivax [4] = assay: Effect of ivermectin on Plasmodium vivax sporogony in Anopheles minimus; type: in vivo; conditions: An. minimus
Protocol: as §2
as §3, with “Salivary glands were dissected with minuten pins into saline on a microscope slide and viewed at 40× magnification to determine sporozoite prevalence.” left out
as §1, with “Oocyst and sporozoite prevalence (i.e. proportion of infected mosquitoes) was compared by Fishers Exact test. Oocyst intensity (i.e. number of oocysts per infected mosquito) was compared by the Mann–Whitney U test.” left out

An. dirus = assay: Anticoagulant effects on mosquito survival with ivermectin LC25; type: in vivo, Anopheles dirus; conditions: sodium heparin vs CPDA, 7 days
Protocol: Blood was drawn from a single donor and put directly into 10 ml sodium heparin tubes (NH) (158 USP units, BD Vacutainer, Franklin Lakes, NJ, USA) or 6ml CPDA Vacuette tubes (Greiner Bio-One, Kremsmϋnster, Austria) under protocol (Protocol WRAIR#2079).

P. falciparum = conditions: cited from earlier work
An. gambiae = system: An. gambiae; set-up: method as in PMID 20540931; conditions: cited from earlier work
Anopheles dirus [5] = assay: Effect of Plasmodium vivax infection on Anopheles dirus survivorship response to ivermectin; type: in vivo; conditions: ivermectin LC25 co-ingested with parasites on DPI 0 vs ivermectin LC25 only; 14 days
Excerpt: Anopheles dirus were fed a P. vivax blood meal or a non-infectious blood meal prepared from uninfected donor blood and serum was replaced as described above. […] After blood feeding, 50 blood fed females from each treatment group were transferred to a new 0.5-l cardboard carton. Mosquito survivorship was monitored daily and dead mosquitoes were removed from the containers until day 14 post blood meal. Any live mosquitoes at day 14 were frozen and counted as alive. A separate group of mosquitoes were fed a P. vivax control blood meal to ensure that the P. vivax sample was infectious to mosquitoes and only isolates that successfully infected at least 80% of An. dirus were included in the results.
as §1, with “Oocyst and sporozoite prevalence (i.e. proportion of infected mosquitoes) was compared by Fishers Exact test. Oocyst intensity (i.e. number of oocysts per infected mosquito) was compared by the Mann–Whitney U test.” left out

[6] = ivermectin LC5 at DPI −3, not significant

ivermectin
LC5 (Anopheles dirus [1]; 7 days post blood meal): 22.1 ng/mL
LC25 (Anopheles dirus [1]; 7 days post blood meal): 0.0381 µg/mL
LC50 (Anopheles dirus [1]; 7 days post blood meal): 0.0556 µg/mL
IRR (Incidence Rate Ratio of mortality at day 7, treatment group divided by control group) (Anopheles dirus [1]; ivermectin imbibed 20 ng/ml): 2.8
IRR (Incidence Rate Ratio of mortality at day 7, treatment group divided by control group) (Anopheles dirus [1]; ivermectin imbibed 25 ng/ml): 8.2
IRR (Incidence Rate Ratio of mortality at day 7, treatment group divided by control group) (Anopheles dirus [1]; ivermectin imbibed 30 ng/ml): 4.7
IRR (Incidence Rate Ratio of mortality at day 7, treatment group divided by control group) (Anopheles dirus [1]; ivermectin imbibed 35 ng/ml): 24.4
IRR (Incidence Rate Ratio of mortality at day 7, treatment group divided by control group) (Anopheles dirus [1]; ivermectin imbibed 40 ng/ml): 19.1
IRR (Incidence Rate Ratio of mortality at day 7, treatment group divided by control group) (Anopheles dirus [1]; ivermectin imbibed 45 ng/ml): 21.4
IRR (Incidence Rate Ratio of mortality at day 7, treatment group divided by control group) (Anopheles dirus [1]; ivermectin imbibed 50 ng/ml): 32.3
IRR (Incidence Rate Ratio of mortality at day 7, treatment group divided by control group) (Anopheles dirus [1]; ivermectin imbibed 55 ng/ml): 29.6
IRR (Incidence Rate Ratio of mortality at day 7, treatment group divided by control group) (Anopheles dirus [1]; ivermectin imbibed 60 ng/ml): 36.1
IRR (Incidence Rate Ratio of mortality at day 7, treatment group divided by control group) (Anopheles dirus [1]; ivermectin imbibed 65 ng/ml): 44.5
IRR (Incidence Rate Ratio of mortality at day 7, treatment group divided by control group) (Anopheles dirus [1]; ivermectin imbibed 70 ng/ml): 42.5
IRR (Incidence Rate Ratio of mortality at day 7, treatment group divided by control group) (Anopheles dirus [1]; ivermectin imbibed 80 ng/ml): 46.8
IRR (Incidence Rate Ratio of mortality at day 7, treatment group divided by control group) (Anopheles dirus [1]; ivermectin imbibed 85 ng/ml): 55.7
IRR (Incidence Rate Ratio of mortality at day 7, treatment group divided by control group) (Anopheles dirus [1]; ivermectin imbibed 95 ng/ml): 58.1
IRR (Incidence Rate Ratio of mortality at day 7, treatment group divided by control group) (Anopheles dirus [1]; ivermectin imbibed 100 ng/ml): 64.3
Simulated average peak concentration [2]: 108.1 ng/mL
P. vivax oocyst prevalence reduced by (Plasmodium vivax [3]; ivermectin LC5 (22.1 ng/ml) co-ingested at DPI 0): 33.6%
P. vivax mean oocyst intensity reduced by (Plasmodium vivax [3]; ivermectin LC5 at DPI 0): 24.7%
P. vivax oocyst intensity increased by (Plasmodium vivax [3]; [6]): 24.2%
P. vivax oocyst prevalence decreased by (Plasmodium vivax [3]; [6]): 3.9%
P. vivax oocyst prevalence reduced by (Plasmodium vivax [3]; ivermectin LC25 (38.1 ng/ml) co-ingested at DPI 0): 44.7%
P. vivax mean oocyst intensity reduced by (Plasmodium vivax [3]; ivermectin LC25 at DPI 0): 51.2%
P. vivax sporozoite prevalence decreased by (Plasmodium vivax [3]; ivermectin LC25 at DPI 6, dissected day 14, not significant): 4.5%
P. vivax sporozoite prevalence increased by (Plasmodium vivax [3]; ivermectin LC25 at DPI 9, dissected day 14, not significant): 4.4%
P. vivax oocyst prevalence reduced by (Plasmodium vivax [4]; ivermectin LC5 (6.7 ng/ml) co-ingested at DPI 0): 31.3%
P. vivax mean oocyst intensity reduced by (Plasmodium vivax [4]; ivermectin LC5 at DPI 0): 35.3%
P. vivax oocyst prevalence reduced by (Plasmodium vivax [4]; ivermectin LC25 (11.3 ng/ml) co-ingested at DPI 0): 58.8%
P. vivax mean oocyst intensity reduced by (Plasmodium vivax [4]; ivermectin LC25 at DPI 0, P = 0.1018): 28.5%
Effect of anticoagulant type on survivorship of An. dirus that ingested ivermectin (An. dirus): did not alter survivorship
Effect on P. falciparum oocyst intensity in An. gambiae (P. falciparum; LC25 or LC5 at DPI 0): no effect
Effect on oocyst prevalence of P. falciparum in An. gambiae (P. falciparum; ivermectin LC5 at DPI −3): reduced oocyst prevalence
Sporontocidal effect for P. falciparum in An. gambiae (P. falciparum; ivermectin LC25 at DPI 6 and 9): significant sporontocidal effect
Effect on P. falciparum prevalence in An. gambiae (P. falciparum; ivermectin LC25 ingested concomitantly (DPI 0)): significantly reduced
An. gambiae 5-day-LC50 (An. gambiae): 0.0224 µg/mL
Effect of P. vivax infection on survivorship of An. dirus that ingested ivermectin (Anopheles dirus [5]): did not alter survivorship
